Key:
[1] = target: T1, HIV-1 RT-associated RNase H (Human immunodeficiency virus type 1 group M subtype B, UniProt P04585); experiment: RNase H polymerase independent cleavage assay; assay type: biochemical; conditions: for remaining activity at 100 µM: read-out: Percentage of control RNase H activity in the presence of the indicated drug concentration
T1 construct: HIV-1 group M subtype B heterodimeric RT; made in house
Protocol: HIV-1 group M subtype B heterodimeric RT was expressed and purified essentially as previously described.
HIV RT-associated RNase H activity was measured as described by Corona et al. 2016 [68] using the RNase H inhibitor RDS1759 as a control. Data analysis of the assay results was performed using GraphPad Prism 9.

[2] = target: T2, HIV-1 IN in the presence of LEDGF/p75 (Human immunodeficiency virus type 1 group M subtype B, UniProt P04585); experiment: HTRF IN LEDGF-dependent assay; assay type: biochemical; conditions: for remaining activity at 100 µM: read-out: Percentage of control IN LEDGF-dependent activity in the presence of the indicated drug concentration; for Inhibition of HIV-1 IN LEDGF-dependent activity (in words): highest tested concentration; for IC50: pure compounds, in the presence of LEDGF, read-out: HIV-1 Integrase LEDGF-Dependent IC50
T2 construct: Recombinant IN and LEDGF/p75 proteins were expressed and purified; made in house
Protocol: Recombinant IN and LEDGF/p75 proteins were expressed and purified as described by Esposito et al. 2020 [67].
The IN activity was measured in the presence of LEDGF/p75 cellular cofactor in an HTRF assay. Data analysis of the assay results was performed using GraphPad Prism 9.

[3] = tested on: HIV-1 RT, wild-type and mutant; set-up: method as in PMID 23821410; conditions: wild-type and mutant RTs; cited from earlier work
[4] = tested on: X4-tropic HIV-1; set-up: method as in PMID 29480632; conditions: target cells; cited from earlier work
[5] = tested on: target cells; conditions: cited from earlier work
[6] = tested on: HIV RT DNA polymerase activity; set-up: method as in Nutan et al. 2013 51; conditions: ref Nutan et al. 2013 51; cited from earlier work
[7] = tested on: HIV-1 protease; conditions: cited from earlier work
[8] = tested on: HIV-1 infection in Jurkat cells; set-up: method as in PMID 22140483; conditions: cited from earlier work
[9] = tested on: HIV-1 in H9 lymphocytes; set-up: method as in PMID 1698933; conditions: infected H9 lymphocytes; cited from earlier work
[10] = tested on: H9 lymphocytes; set-up: method as in PMID 1698933; conditions: cited from earlier work

SMILES	IC50 ([1]; pure compounds) [µM]	remaining activity at 100 µM [2] [%]	Inhibition of HIV-1 IN LEDGF-dependent activity (in words) [2]	IC50 [2] [µM]	also measured
O=c1cc(-c2ccc(O)cc2)oc2cc(O[C@@H]3O[C@H](CO)[C@@H](O)[C@H](O)[C@H]3O)cc(O)c12 [Apigenin 7-O-glucoside]	> 100	100	totally inactive	> 100	remaining activity at 100 µM [1]: 100%
O=c1cc(-c2ccc(O)cc2)oc2cc(O)cc(O)c12 [Apigenin]	16.1 ± 0.6			22 ± 3.5	
C=C(C)[C@@H]1CC[C@]2(C(=O)O)CC[C@]3(C)[C@H](CC[C@@H]4[C@@]5(C)CC[C@H](O)C(C)(C)[C@@H]5CC[C@]43C)[C@@H]12 [Betulinic acid]	2 ± 0.2		weakly active	96.5 ± 3.5	Inhibition of HIV-1 RT-associated functions [3]: inhibited
O=c1oc2c(O)c(O)cc3c(=O)oc4c(O)c(O)cc1c4c23 [Ellagic acid]	1.4 ± 0.11			0.075 ± 0.0005	Suppression of replication of X4-tropic HIV-1 [4]: able to suppress; Cytotoxicity [5]: without cytotoxicity; Inhibition of HIV RT (DNA polymerase activity) [6]: inability; Inhibition of HIV-1 protease expression [7]: ability to inhibit
O=c1cc(-c2ccc(O[C@@H]3O[C@H](CO)[C@@H](O)[C@H](O)[C@H]3O)c(O)c2)oc2cc(O)cc(O)c12 [Luteolin 4′-O-glucoside]	> 100	100	totally inactive	> 100	remaining activity at 100 µM [1]: 100%
O=c1cc(-c2ccc(O)c(O)c2)oc2cc(O)cc(O)c12 [Luteolin]	3.7 ± 0.5			6.5 ± 0.5	Inhibition of HIV-1 infection [8]: capable of inhibiting
CC1(C)CC[C@]2(C(=O)O)CC[C@]3(C)C(=CC[C@@H]4[C@@]5(C)CC[C@H](O)C(C)(C)[C@@H]5CC[C@]43C)[C@@H]2C1 [Oleanolic acid]	6.7 ± 0.4	74	inactive	> 100	Inhibition of protease expression [7]: inhibit
O=C1OC2C(O)OC3COC(=O)c4cc(O)c(O)c(O)c4-c4c(O)c(O)c5oc(=O)c6c(c(O)c(O)c7oc(=O)c4c5c76)-c4c(cc(O)c(O)c4O)C(=O)OC3C2OC(=O)c2cc(O)c(O)c(O)c2-c2c1cc(O)c(O)c2O (stereo not drawn) [Punicalagins, Punicalagin α + β]				0.065	Inhibition of HIV-1 replication [9]: inhibited; Cytotoxicity [10]: low degree of cytotoxicity; HIV-1 RT-Associated RNase H IC50 ([1]; pure compounds): 0.12 ± 0.00 µM
CCOC(=O)C(=O)CC(=O)/C=C/c1cccn1Cc1ccccc1Cl [RDS1759, reference compound]					HIV-1 RT-Associated RNase H IC50 ([1]; reference compound of Table 1, footnote c: expressed in µM): 10.7 ± 0.9^c µM
C[C@H]1[C@H](C)CC[C@]2(C(=O)O)CC[C@]3(C)C(=CC[C@@H]4[C@@]5(C)CC[C@H](O)C(C)(C)[C@@H]5CC[C@]43C)[C@H]12 [Ursolic acid]	5.7 ± 0.1	68	inactive	> 100	Inhibition of protease expression [7]: inhibit

From publication PMC8539310, “In Vitro Anti-HIV-1 Reverse Transcriptase and Integrase Properties of Punica granatum L. Leaves, Bark, and Peel Extracts and Their Main Compounds” (Plants, 2021)
